# Test results taken from publication PMC9120017, “Inhibition mechanism of the chloride channel TMEM16A by the pore blocker 1PBC” (Nature Communications, 2022).
# pIC50: −log10 of the molar value. Like-named read-outs stand apart in the source and are kept apart here.
# Target: T1, mouse TMEM16A mutant S517A (Mus musculus, UniProt Q8BHY3, S517A)
# T1 construct: expressed in transfected cells; host or cells: HEK293T
# T1 sequence (Q8BHY3 1-960 S517A): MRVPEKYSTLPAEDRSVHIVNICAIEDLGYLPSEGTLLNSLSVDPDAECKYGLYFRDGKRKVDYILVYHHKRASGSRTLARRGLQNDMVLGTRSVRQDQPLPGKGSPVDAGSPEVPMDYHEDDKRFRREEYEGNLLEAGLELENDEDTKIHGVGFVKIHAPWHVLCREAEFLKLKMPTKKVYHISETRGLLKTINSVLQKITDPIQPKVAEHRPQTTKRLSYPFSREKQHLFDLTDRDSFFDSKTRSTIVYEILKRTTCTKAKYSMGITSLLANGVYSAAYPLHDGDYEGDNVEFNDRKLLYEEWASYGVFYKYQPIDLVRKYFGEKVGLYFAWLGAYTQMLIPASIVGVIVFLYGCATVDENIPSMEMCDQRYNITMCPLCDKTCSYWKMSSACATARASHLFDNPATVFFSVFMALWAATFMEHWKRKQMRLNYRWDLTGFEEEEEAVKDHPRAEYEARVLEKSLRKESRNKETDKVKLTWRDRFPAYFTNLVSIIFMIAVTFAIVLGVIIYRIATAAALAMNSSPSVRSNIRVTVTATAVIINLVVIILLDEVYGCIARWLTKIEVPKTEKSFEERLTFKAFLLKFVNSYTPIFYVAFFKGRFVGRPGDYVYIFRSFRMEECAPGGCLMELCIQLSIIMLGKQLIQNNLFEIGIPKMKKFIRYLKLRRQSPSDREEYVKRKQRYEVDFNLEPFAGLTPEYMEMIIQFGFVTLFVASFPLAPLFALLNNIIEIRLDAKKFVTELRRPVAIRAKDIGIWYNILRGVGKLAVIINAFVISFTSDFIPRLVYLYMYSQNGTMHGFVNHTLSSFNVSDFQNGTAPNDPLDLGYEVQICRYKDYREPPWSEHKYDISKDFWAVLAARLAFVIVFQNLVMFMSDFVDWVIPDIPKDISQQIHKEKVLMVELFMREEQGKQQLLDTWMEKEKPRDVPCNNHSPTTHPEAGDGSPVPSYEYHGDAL
# Assay: Inside-out patch recording of 1PBC block, mutant S517A
# Type: cell-based
# Details: for remaining activity at 1 µM: 1PBC 1; for remaining activity at 1 µM / remaining activity at 3 µM / remaining activity at 10 µM / remaining activity at 30 µM: read-out: fraction of unblocked current; for remaining activity at 3 µM: 1PBC 3; for remaining activity at 10 µM: 1PBC 10; for remaining activity at 30 µM: 1PBC 30
# Procedure: HEK293T cells (ATCC CRL-1573) were maintained in Dulbecco’s modified Eagle’s medium (DMEM; Sigma-Aldrich) supplemented with 10 U ml^−1 penicillin, 0.1 mg ml^−1 streptomycin (Sigma-Aldrich), 2 mM L-glutamine (Sigma-Aldrich), and 10% FBS (Sigma-Aldrich) in a humidified atmosphere containing 5% CO2 at 37 °C. HEK293S GnTI^− cells (ATCC CRL-3022) were maintained in HyClone HyCell TransFx-H medium (GE Healthcare) supplemented with 10 U ml^−1 penicillin, 0.1 mg ml^−1 streptomycin, 4 mM L-glutamine, 0.15% poloxamer 188 (Sigma-Aldrich), and 1% FBS in an atmosphere containing 5% CO2 at 185 rpm at 37 °C. The ac splice variant of mouse TMEM16A (UniProt ID: Q8BHY3), mouse TMEM16B (UniProt ID: Q8CFW1), or mouse TMEM16F (UniProt ID: Q6P9J9) bearing a 3C cleavage site, a Venus YFP, a Myc tag, and a Streptavidin-binding peptide (SBP) downstream of the open reading frame in a modified pcDNA3.1 vector (Invitrogen) were used as described previously[21],[31]. Mutations were introduced using a modified QuikChange method[58] and were verified by sequencing.
# HEK293T cells were transfected with 3–4 μg DNA per 6 cm Petri dish using the calcium phosphate co-precipitation method and were used within 24–96 h after transfection. Recordings were performed on inside-out patches excised from HEK293T cells expressing the construct of interest. Patch pipettes were pulled from borosilicate glass capillaries (O.D. 1.5 mm, I.D. 0.86 mm, Sutter Instrument) and were fire-polished with a microforge (Narishige) before use. Pipette resistance was typically 3–8 MΩ when filled with the recording solutions detailed below. Seal resistance was typically 4 GΩ or higher. Voltage-clamp recordings were made using Axopatch 200B, Digidata 1550, and Clampex 10.7 (Molecular Devices). Analog signals were filtered with the in-built 4-pole Bessel filter at 10 kHz and were digitized at 20 kHz. Solution exchange was achieved using a gravity-fed system through a theta glass pipette mounted on an ultra-fast piezo-driven stepper (Siskiyou). […] All recordings were performed at 20 °C.
# A symmetrical ionic condition was used throughout. Stock solution with Ca^2+-EGTA contained 150 mM NaCl, 5.99 mM Ca(OH)2, 5 mM EGTA, and 10 mM HEPES at pH 7.40. Stock solution with EGTA contained 150 mM NaCl, 5 mM EGTA, and 10 mM HEPES at pH 7.40. Free Ca^2+ concentrations were adjusted by mixing the stock solutions at the required ratios calculated using the WEBMAXC program (http://web.stanford.edu/~cpatton/webmaxcS.htm). Patch pipettes were filled with the stock solution with Ca^2+-EGTA, which has a free Ca^2+ concentration of 1 mM. 1PBC (ChemBridge) stock was reconstituted in anhydrous DMSO (Sigma-Aldrich) at 100 mM and stored at −20 °C. Working solutions with 1PBC were prepared by serial dilution. Unless otherwise stated, experiments were performed at a saturating Ca^2+ concentration as shown in Supplementary Table 1 and the primary data were corrected for current rundown as described previously[21],[25].
# Concentration-response relations, obtained from the ratio of the I-V plots before and after the application of the blocker, were fitted to the Hill equation,1 I/Imax=1/1+IC50/[blocker]^h where I/Imax is the normalized current responses, IC50 defines the concentration at which inhibition is at its half-maximum, and h is the Hill coefficient.
smiles,measurement,setting,value
N#Cc1c(C(F)(F)F)cc(O)n2c1nc1ccccc12 [1PBC],pIC50,"0 mV, 2 µM Ca2+",5.31
same,remaining activity at 1 µM,0 mV,80.6%
same,remaining activity at 1 µM,20 mV,76.4%
same,remaining activity at 1 µM,40 mV,72.2%
same,remaining activity at 1 µM,60 mV,68.1%
same,remaining activity at 1 µM,80 mV,65.8%
same,remaining activity at 1 µM,100 mV,66.4%
same,remaining activity at 1 µM,120 mV,68.4%
same,remaining activity at 1 µM,140 mV,72%
same,remaining activity at 1 µM,-20 mV,84.8%
same,remaining activity at 1 µM,-40 mV,89.1%
same,remaining activity at 1 µM,-60 mV,92.3%
same,remaining activity at 1 µM,-80 mV,93.4%
same,remaining activity at 1 µM,-100 mV,95%
same,remaining activity at 1 µM,-120 mV,95.3%
same,remaining activity at 1 µM,-140 mV,96.6%
same,remaining activity at 3 µM,0 mV,62.1%
same,remaining activity at 3 µM,20 mV,56.5%
same,remaining activity at 3 µM,40 mV,50.9%
same,remaining activity at 3 µM,60 mV,46.8%
same,remaining activity at 3 µM,80 mV,43.5%
same,remaining activity at 3 µM,100 mV,42.4%
same,remaining activity at 3 µM,120 mV,44.1%
same,remaining activity at 3 µM,140 mV,49.1%
same,remaining activity at 3 µM,-20 mV,67.7%
same,remaining activity at 3 µM,-40 mV,73.3%
same,remaining activity at 3 µM,-60 mV,77.2%
same,remaining activity at 3 µM,-80 mV,82.9%
same,remaining activity at 3 µM,-100 mV,86.4%
same,remaining activity at 3 µM,-120 mV,88.8%
same,remaining activity at 3 µM,-140 mV,90.8%
same,remaining activity at 10 µM,0 mV,33.3%
same,remaining activity at 10 µM,20 mV,28.2%
same,remaining activity at 10 µM,40 mV,24.2%
same,remaining activity at 10 µM,60 mV,21.4%
same,remaining activity at 10 µM,80 mV,19.4%
same,remaining activity at 10 µM,100 mV,17.8%
same,remaining activity at 10 µM,120 mV,18.2%
same,remaining activity at 10 µM,140 mV,20.6%
same,remaining activity at 10 µM,-20 mV,38.5%
same,remaining activity at 10 µM,-40 mV,44.6%
same,remaining activity at 10 µM,-60 mV,50%
same,remaining activity at 10 µM,-80 mV,54.7%
same,remaining activity at 10 µM,-100 mV,59.2%
same,remaining activity at 10 µM,-120 mV,64.2%
same,remaining activity at 10 µM,-140 mV,67.7%
same,remaining activity at 30 µM,0 mV,14.7%
same,remaining activity at 30 µM,20 mV,12%
same,remaining activity at 30 µM,40 mV,10.1%
same,remaining activity at 30 µM,60 mV,9.12%
same,remaining activity at 30 µM,80 mV,8.68%
same,remaining activity at 30 µM,100 mV,8.48%
same,remaining activity at 30 µM,120 mV,8.95%
